Source: patent publication US6737383B1, “Herbicidal oxadiazolidines” (priority 1999, dated 2004)

Legend:
bedstraw = assay: Test B pre/postemergence bedstraw; format: in vivo, Galium aparine; conditions: Preemergence
How it was run: (§1)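 Response is a visual 0-to-10 score relative to untreated plants, where 0 means no effect and 10 means complete control, taken twelve to sixteen days after application. Treatments went onto soil at planting and onto foliage of 1- to 4-leaf plants, using a surfactant-containing non-phytotoxic solvent.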

cocklebur = assay: Test B pre/postemergence cocklebur; format: in vivo, Xanthium strumarium
How it was run: as §1

purple nutsedge = assay: Test B pre/postemergence purple nutsedge; format: in vivo, Cyperus rotundus
How it was run: as §1

corn = assay: Test B pre/postemergence corn; format: in vivo, Zea mays
How it was run: as §1

giant foxtail = assay: Test B pre/postemergence giant foxtail; format: in vivo, Setaria faberii
How it was run: as §1

velvetleaf = assay: Test B pre/postemergence velvetleaf; format: in vivo, Abutilon theophrasti; conditions: for Plant response rating, Velvetleaf: Postemergence
How it was run: as §1

rape = assay: Test B pre/postemergence rape; format: in vivo, Brassica napus
How it was run: as §1

pigweed = assay: Test B pre/postemergence pigweed; format: in vivo, Amaranthus retroflexus; conditions: for Plant response rating, Redroot pigweed: Postemergence
How it was run: as §1

surinam grass = assay: Test B pre/postemergence surinam grass; format: in vivo, Brachiaria decumbens
How it was run: as §1

blackgrass = assay: Test B pre/postemergence blackgrass; format: in vivo, Alopecurus myosuroides
How it was run: as §1

morningglory = assay: Test B pre/postemergence morningglory; format: in vivo, Ipomoea hederacea
How it was run: as §1

soybean = assay: Test B pre/postemergence soybean; format: in vivo, Glycine max; conditions: for Plant response rating, Soybean: Postemergence
How it was run: as §1

wheat = assay: Test B pre/postemergence wheat; format: in vivo, Triticum aestivum; conditions: for Plant response rating, Wheat: Postemergence
How it was run: as §1

wild oat = assay: Test B pre/postemergence wild oat; format: in vivo, Avena fatua; conditions: for Plant response rating, Wild oats: Postemergence
How it was run: as §1

sugar beet = assay: Test B pre/postemergence sugar beet; format: in vivo, Beta vulgaris
How it was run: as §1

crabgrass = assay: Test B pre/postemergence crabgrass; format: in vivo, Digitaria sanguinalis
How it was run: as §1

[1] = Rate 500 g/ha, scale of 0 to 10 where 0 is no effect and 10 is complete control
[2] = Postemergence, Rate 62 g/ha, scale of 0 to 10, 0 is no effect, 10 is complete control
[3] = Postemergence, Rate 125 g/ha, scale 0 to 10, 0 is no effect, 10 is complete control
[4] = Postemergence, Rate 500 g/ha, scale of 0 to 10 where 0 is no effect and 10 is complete control
[5] = Preemergence, Rate 62 g/ha, scale 0 to 10 (0 no effect, 10 complete control)
[6] = Preemergence, Rate 125 g/ha, scale 0 to 10, 0 is no effect, 10 is complete control
[7] = Preemergence, Rate 500 g/ha, scale of 0 to 10 where 0 is no effect and 10 is complete control
[8] = Rate 250 g/ha, Postemergence, scale of 0 to 10 where 0 is no effect and 10 is complete control
[9] = Rate 250 g/ha, scale of 0 to 10 where 0 is no effect and 10 is complete control

CC(Cl)=CCn1c(=O)on(C(=O)N(c2ccccc2)C(C)C)c1=O [Compound 573]
9: Plant response rating, Giant foxtail (giant foxtail; [4]) | Giant foxtail plant response rating (giant foxtail; [5]) | Giant foxtail plant response rating (giant foxtail; [6]) | Giant foxtail plant response rating (0 to 10 scale) (giant foxtail; Preemergence, Rate 250 g/ha) | Plant response rating, Giant foxtail (giant foxtail; [8]) | Redroot pigweed plant response rating (0 to 10 scale) (pigweed; Preemergence, Rate 250 g/ha) | Redroot pigweed plant response rating (pigweed; [7]) | B. signalgrass plant response rating (0 to 10 scale, 0 is no effect, 10 is complete control) (surinam grass; Preemergence, Rate 250 g/ha) | Crabgrass plant response rating (crabgrass; [3]) | Plant response rating, Crabgrass (crabgrass; [4]) | Crabgrass plant response rating (crabgrass; [6]) | Crabgrass plant response rating (0 to 10 scale) (crabgrass; Preemergence, Rate 250 g/ha) | Plant response rating, Crabgrass (crabgrass; [8])
3: Plant response rating, Cocklebur (cocklebur; [4]) | Corn plant response rating (corn; [7]) | Giant foxtail plant response rating (giant foxtail; [3]) | Velvetleaf plant response rating (velvetleaf; [7]) | Rape plant response rating (0 to 10 scale) (rape; Preemergence, Rate 250 g/ha) | Rape plant response rating (rape; [7]) | Plant response rating, Rape (rape; [8]) | Crabgrass plant response rating (crabgrass; [5])
10: Giant foxtail plant response rating (giant foxtail; [7]) | B. signalgrass plant response rating (surinam grass; [7]) | Morningglory plant response rating (morningglory; [2]) | Morningglory plant response rating (morningglory; [3]) | Plant response rating, Morningglory (morningglory; [4]) | Plant response rating, Morningglory (morningglory; [8]) | Crabgrass plant response rating (crabgrass; [7])
4: Plant response rating, Redroot pigweed (pigweed; [9]) | Morningglory plant response rating (morningglory; [7]) | Plant response rating, Soybean (soybean; [9])
6: Blackgrass plant response rating (blackgrass; [7]) | Plant response rating, Soybean (soybean; [1]) | Crabgrass plant response rating (crabgrass; [2])
7: Plant response rating, Redroot pigweed (pigweed; [1]) | B. signalgrass plant response rating (surinam grass; [5]) | B. signalgrass plant response rating (surinam grass; [6])
0: Bedstraw plant response rating (bedstraw; Rate 62 g/ha, scale 0 to 10 (0 no effect, 10 complete control)) | Bedstraw plant response rating (bedstraw; Rate 125 g/ha, scale 0 to 10, 0 is no effect, 10 is complete control) | Bedstraw plant response rating (0 to 10 scale) (bedstraw; Rate 250 g/ha) | Bedstraw plant response rating (bedstraw; [1]) | Cocklebur plant response rating (cocklebur; [2]) | Cocklebur plant response rating (cocklebur; [3]) | Cocklebur plant response rating (cocklebur; [5]) | Cocklebur plant response rating (cocklebur; [6]) | Cocklebur plant response rating (0 to 10 scale) (cocklebur; Preemergence, Rate 250 g/ha) | Cocklebur plant response rating (cocklebur; [7]) | Nutsedge plant response rating (purple nutsedge; [2]) | Nutsedge plant response rating (purple nutsedge; [3]) | Nutsedge plant response rating (purple nutsedge; [5]) | Nutsedge plant response rating (purple nutsedge; [6]) | Nutsedge plant response rating (0 to 10 scale) (purple nutsedge; Preemergence, Rate 250 g/ha) | Nutsedge plant response rating (purple nutsedge; [7]) | Plant response rating, Nutsedge (purple nutsedge; [8]) | Corn plant response rating (corn; [2]) | Corn plant response rating (corn; [3]) | Plant response rating, Corn (corn; [4]) | Corn plant response rating (corn; [5]) | Corn plant response rating (corn; [6]) | Corn plant response rating (0 to 10 scale) (corn; Preemergence, Rate 250 g/ha) | Plant response rating, Corn (corn; [8]) | Velvetleaf plant response rating (velvetleaf; [5]) | Velvetleaf plant response rating (velvetleaf; [6]) | Velvetleaf plant response rating (0 to 10 scale) (velvetleaf; Preemergence, Rate 250 g/ha) | Plant response rating, Velvetleaf (velvetleaf; [9]) | Rape plant response rating (rape; [2]) | Redroot pigweed plant response rating (pigweed; [5]) | Redroot pigweed plant response rating (pigweed; [6]) | B. signalgrass plant response rating (surinam grass; [2]) | B. signalgrass plant response rating (surinam grass; [3]) | Plant response rating, B. signalgrass (surinam grass; [4]) | Plant response rating, B. signalgrass (surinam grass; [8]) | Blackgrass plant response rating (blackgrass; [2]) | Blackgrass plant response rating (blackgrass; [3]) | Plant response rating, Blackgrass (blackgrass; [4]) | Blackgrass plant response rating (blackgrass; [5]) | Blackgrass plant response rating (blackgrass; [6]) | Plant response rating, Blackgrass (blackgrass; [8]) | Morningglory plant response rating (morningglory; [5]) | Morningglory plant response rating (morningglory; [6]) | Morningglory plant response rating (0 to 10 scale) (morningglory; Preemergence, Rate 250 g/ha) | Soybean plant response rating (soybean; [5]) | Soybean plant response rating (soybean; [6]) | Soybean plant response rating (0 to 10 scale) (soybean; Preemergence, Rate 250 g/ha) | Soybean plant response rating (soybean; [7]) | Plant response rating, Wheat (wheat; [1]) | Wheat plant response rating (wheat; [5]) | Wheat plant response rating (wheat; [6]) | Wheat plant response rating (0 to 10 scale) (wheat; Preemergence, Rate 250 g/ha) | Wheat plant response rating (wheat; [7]) | Plant response rating, Wheat (wheat; [9]) | Plant response rating, Wild oats (wild oat; [1]) | Wild oats plant response rating (wild oat; [5]) | Wild oats plant response rating (wild oat; [6]) | Wild oats plant response rating (0 to 10 scale) (wild oat; Preemergence, Rate 250 g/ha) | Wild oats plant response rating (wild oat; [7]) | Plant response rating, Wild oats (wild oat; [9]) | Sugarbeets plant response rating (sugar beet; [5]) | Plant response rating, Sugarbeets (sugar beet; [8])
2: Plant response rating, Cocklebur (cocklebur; [8]) | Giant foxtail plant response rating (giant foxtail; [2]) | Plant response rating, Velvetleaf (velvetleaf; [1]) | Rape plant response rating (rape; [3]) | Plant response rating, Rape (rape; [4]) | Rape plant response rating (rape; [5]) | Rape plant response rating (rape; [6]) | Blackgrass plant response rating (0 to 10 scale) (blackgrass; Preemergence, Rate 250 g/ha) | Sugarbeets plant response rating (sugar beet; [6]) | Sugarbeets plant response rating (0 to 10 scale) (sugar beet; Preemergence, Rate 250 g/ha) | Sugarbeets plant response rating (sugar beet; [7])
